Measurements: patent US20110082119A1, “PROPHYLACTIC/AMELIORATING OR THERAPEUTIC AGENT FOR NON-ALCOHOLIC STEATOHEPATITIS” (priority 2008, published 2011)
Where a name gives a salt, the structure may show the parent alone.

Columns and labels:
NASH patient = settings: cited from earlier work
[1] = system: rats fed with methionine-choline-deficient diet (NASH-like lesion in the liver); type: in vivo; settings: MCD diet 20 weeks, compared to the control group; for plasma AST / plasma ALT: oral once a day; for plasma AST: EPA-E 1000 mg/kg, acetylsalicylic acid 20 mg/kg; for plasma ALT: EPA-E 1000, metformin hydrochloride 40, acetylsalicylic acid 20, simvastatin 5, valsartan 20 mg/kg
Description: Pharmacological action of EPA-E and/or metformin hydrochloride, acetylsalicylic acid, simvastatin, or valsartan on liver disorder and fibrosis is confirmed by using rats that have been fed with methionine-choline-deficient diet (hereinafter referred to as “MCD diet”) known to develop a NASH-like lesion in the liver.
(§1) 7 week old male Wister rats are allowed to freely take normal diet (F-1, Funabashi Farm) or MCD diet (Dyets, Inc.) for 20 weeks under 12 hour light-dark cycles at 23° C. […] The administration is conducted orally once a day. The normal group and the control group are orally administered with 5% aqueous solution of gum arabic once a day. After 20 weeks, blood is collected for biochemical tests of the plasma, and pathological tests of the liver are also conducted.

[2] = system: SD rat fed with high-fat high-sucrose diet; experiment: Effectiveness in high fat diet-fed rat; type: in vivo; settings: HF diet 4 weeks
Description: 4 week old male SD rat is allowed to freely take normal diet (F-1, Funabashi Farm) or high-fat high-sucrose diet (TD88137, Harlan Teklad, hereinafter referred to as “HF diet”) for 4 weeks under 12 hour light-dark cycles at 23° C. […] The administration is conducted orally once a day. The normal group and the control group are orally administered with 5% aqueous solution of gum arabic once a day. After 4 weeks, blood is collected for determining neutrophil count and conduct biochemical tests of the plasma.

[3] = system: db/db mouse fed with MCD diet (NASH-like lesion in the liver); experiment: Effectiveness in methionine-choline deficient diet diabetes model mouse; type: in vivo; settings: MCD diet 2 weeks, compared to the control group; for plasma ALT / plasma FFA amount: oral once a day, EPA-E 1000 mg/kg, metformin hydrochloride 80 mg/kg
Description: Pharmacological action of EPA-E and/or metformin hydrochloride or olmesartan medoxomil for liver disorder and fibrosis is confirmed by using diabetes model rats that have been fed with MCD diet known to induce a NASH-like lesion in the liver.
as §1, with “db/db mouse (Charles River Japan) is” for “Wister rats are”, “2” for “20”, “weeks, HOMA-IR is measured and” for “weeks,”, “test” for “tests”, “plasma.” for “plasma, and pathological tests of the liver are also conducted.”

NASH patients = experiment: Administration to patients with the definitive diagnosis of NASH for one year; type: in vivo, human
Description: Patients with the definitive diagnosis of NASH are divided into 8 groups (each group consisting of 15 patients). EPA-E group is administered with Epadel S (Registered Trademark) 900 (containing 900 mg of EPA-E) twice a day. […] Administration of the Melbin (Registered Trademark) tablet is started from once a day, the dose is adequately adjusted depending on the conditions of the patient, and after 5 weeks from the start of the administration, the dose may be increased to twice a day, and after 9 weeks from the start of the administration, the dose may be increased to 3 times a day. The dose is adequately adjusted depending on the conditions of the patient. […] Administration of the Bayaspirin (Registered Trademark) tablet is started from twice a day at 10 tablet in total, and after 5 weeks from the start of the administration, the dose is reduced to once a day at 1 tablet in total. The dose is adequately adjusted depending on the conditions of the patient. […] Candesartan group is administered with Blopress (Registered Trademark) tablet 2 (containing 2 mg of candesartan cilexetil), and candesartan combination group is administered with Blopress (Registered Trademark) tablet 2 and Epadel S (Registered Trademark) 900 twice a day. Administration of the Mevalotin (Registered Trademark) tablet 5 and Blopress (Registered Trademark) tablet 2 is started from 1 tablet once a day, and after 5 weeks from the start of the administration, the dose is increased to twice a day at 2 tablets in total, and after 9 weeks from the start of the administration, the dose is further increased to twice a day at 4 tablets in total. The dose is adequately adjusted depending on the conditions of the patient. Criteria, monitoring, histological tests, statistical analysis of the patients are conducted according to the methods described in Am. J. Gastroenterol. 2001; 96: 2711-2717. Measurement of blood neutrophil count and HOMA-IR, blood biochemical tests such as ALT and AST are occasionally conducted during the administration period of one year, and liver biopsy is conducted after completing the administration for histological evaluation.

[4] = NASH patient also suffering from hypertension, oral 50 mg/day for 48 weeks, Non-Patent Literature 9
[5] = EPA-E 1000 mg/kg oral once a day
[6] = oral once a day, compared to the control group, EPA-E 1000 mg/kg, atorvastatin calcium hydrate 10 mg/kg
[7] = administration period of one year, EPA-E group (Epadel S 900 twice a day) compared to the measurements before the treatment
[8] = one year, Epadel S 900 (900 mg EPA-E) twice a day, compared to the measurements before the treatment
[9] = NASH patient, oral 1500 mg/day for 4 months, Non-Patent Literature 4

CCCCc1nc(Cl)c(CO)n1Cc1ccc(-c2ccccc2-c2nn[nH]n2)cc1 [losartan]
ALT (NASH patient; [4]): improvement
ferritin (NASH patient; [4]): improvement
type IV collagen (NASH patient; [4]): improvement

CC(=O)Oc1ccccc1C(=O)O [acetylsalicylic acid]
effects on plasma and liver parameters like those of the EPA-E group ([1]; acetylsalicylic acid 20 mg/kg oral once a day): does not exhibit effects like those of the EPA-E group
plasma AST [1]: exacerbated
plasma ALT [1]: exacerbated
improvement of the parameters over the control group ([2]; acetylsalicylic acid 10 mg/kg oral once a day): does not exhibit significant improvement

CCCCC(=O)N(Cc1ccc(-c2ccccc2-c2nnn[nH]2)cc1)[C@H](C(=O)O)C(C)C [valsartan]
plasma ALT [1]: suppression of the increase

CC/C=C\C/C=C\C/C=C\C/C=C\C/C=C\CCCC(=O)OCC [EPA-E, ethyl icosapentate]
liver hydroxyproline content [1, 5]: suppressed increase
plasma TIMP-1 content [1, 5]: suppressed increase
plasma albumin [1, 5]: suppressed increase
plasma choline esterase [1, 5]: suppressed increase
plasma hyaluronic acid [1, 5]: suppressed increase
plasma total bilirubin [1, 5]: suppressed increase
plasma total protein [1, 5]: suppressed increase
plasma type Iv collagen [1, 5]: suppressed increase
plasma AST [1]: suppressed increase
plasma ALT [1]: suppressed increase
fibrosis area of liver ([1]; Masson's trichrome stain, EPA-E 1000 mg/kg oral once a day): suppressed increase
TNFα [3, 5]: suppressed increase
plasma AST [3, 5]: suppressed increase
plasma TIMP-1 [3, 5]: suppressed increase
plasma adiponectin amount [3, 5]: suppressed decrease
plasma hyaluronic acid [3, 5]: suppressed increase
plasma type IV collagen [3, 5]: suppressed increase
plasma ALT [3]: suppressed increase
plasma FFA amount [3]: suppressed increase
IL-6 [2, 6]: suppressed increase
TNFα [2, 6]: suppressed increase
ferritin [2, 6]: suppressed increase
high sensitivity CPR [2, 6]: suppressed increase
neutrophil count [2, 6]: suppressed increase
plasma ALT [2, 6]: suppressed increase
plasma AST [2, 6]: suppressed increase
thioredoxin [2, 6]: suppressed increase
type IV collagen [2, 6]: suppressed increase
NASH (AST or ALT enzyme, inflammatory cytokine or oxidative stress marker, liver biopsy) (NASH patient; 2700 mg/day of high purity EPA-E for 12 months, Tanaka et al., Non-Patent Literature 3): amelioration of NASH was demonstrated
AST (NASH patients; [7]): decrease
HOMA-IR (NASH patients; [7]): improved
IL-6 (NASH patients; [7]): decrease
TNFα (NASH patients; [7]): decrease
adiponectin (NASH patients; [7]): increases
ferritin (NASH patients; [7]): decrease
fibrosis marker (NASH patients; [7]): decrease
high sensitivity CPR (NASH patients; [7]): decrease
thioredoxin (NASH patients; [7]): decrease
pathological test image of the liver tissue, overall rating of fat accumulation grade, inflammation grade and fibrosis stage by Brunt method (NASH patients; liver biopsy after one year, EPA-E group compared to the condition before the administration): improves
AZT (NASH patients; [8]): decrease
blood neutrophil count (NASH patients; [8]): decrease

CC(C)c1c(C(=O)Nc2ccccc2)c(-c2ccccc2)c(-c2ccc(F)cc2)n1CC[C@@H](O)C[C@@H](O)CC(=O)O [atorvastatin, atorvastatin calcium hydrate]
IL-6 [2, 6]: suppressed increase
TNFα [2, 6]: suppressed increase
ferritin [2, 6]: suppressed increase
high sensitivity CPR [2, 6]: suppressed increase
neutrophil count [2, 6]: suppressed increase
thioredoxin [2, 6]: suppressed increase
type IV collagen [2, 6]: suppressed increase

CN(C)C(=N)N=C(N)N [metformin, metformin hydrochloride]
plasma ALT [1]: suppression of the increase
HOMA-IR ([3]; metformin hydrochloride 80 mg/kg oral once a day): improved
plasma ALT [3]: suppressed increase
plasma FFA amount [3]: suppressed increase
lactic acid level (NASH patient; [9]): significant increase
serum alanine aminotransferase (ALT) level (NASH patient; [9]): significant decrease
